Measurements reported in patent US20260176252A1, “IONIZABLE LIPIDS WITH BRANCHED HEAD GROUPS” (Beam Therapeutics Inc., priority 2023, published 2026).

Legend:
ALAS1 target site = experiment: In vivo base editing with LNP-delivered ABE mRNA and sgRNA targeting ALAS1; details: Balb/c mice, IV tail vein, 4 days after dosing; for Quadracept Editing A->G (%): ALAS1, Quadracept (muscle); for Liver Editing A->G (%): ALAS1, liver
Description: Exemplary LNP preparations are selected to determine each preparation's ability to perform base editing in a Balb/C mouse model as described herein.
Lipid nanoparticle components are dissolved in 100% ethanol at specified lipid component molar ratios. mRNA encoding an adenine base editor and a chemically-modified sgRNA is dissolved at a mass ratio of 1:1 in 10 mM citrate, 100 mM NaCl, pH 4.0, resulting in a concentration of NA cargo of approximately 0.22 mg/mL. LNP preparations are formulated with molar ratios of either 50% Ionizable Lipid:38.5% Cholesterol:1.5% PEG2000-DMG: 10% DSPC or 47.5% Ionizable Lipid:40% Cholesterol:2.5% PEG2000-DMG: 10% DSPC both at a total lipid to NA molar ratio of 6.
(§1) LNP preparations are formed by microfluidic mixing of the lipid and NA solutions using a Precision Nanosystems NanoAssemblr Ignite Instrument, according to the manufacturer's protocol. A 3:1 ratio of aqueous to organic solvent is maintained during mixing using differential flow rates. After mixing, LNP preparations are collected, diluted in PBS (approximately 2:1 v/v), and further buffer exchange is conducted using dialysis in PBS at 4° C. for 8 to 24 hours against a 20 kDa filter. After this initial dialysis, each individual LNP preparation is characterized via dynamic light scattering (DLS) to measure size and polydispersity. pKa of a subpopulation of LNP preparations is measured via TNS assay. After dialysis, LNP preparations are sterile filtered using 0.22 micron sterile filter and stored at 4° C. for further use. In some embodiments, LNP preparations may be concentrated using 100 kDa Amicon filters per manufacturer's protocol.
Male Balb/C mice aged approximately 8-12 weeks are used in the experiments described herein. Each mouse is temporarily restrained, and LNP preparations are administered IV via tail vein injection. Age-matched mice are also used to administer vehicle (1×PBS) via tail vein injection as a control. Four to six days post-dose, tissues including liver, spleen, heart and muscle are collected (only liver and muscle (quardracept) are reported). Genomic DNA is isolated and fragmented and adapter-ligated using the Nextera DNA Flex Library Prep Kit (Illumina) using the 96-well plate Nextera indexing primers (Illumina), according to the manufacturer's instructions. Library size and concentration is confirmed by Fragment Analyzer (Agilent) and sent to Novogene for whole genome sequencing using an Illumina HiSeq.
For base editing, mRNA encoding an adenine base editor (ABE) and a guide RNA (sgRNA) targeting ALAS1 at 1:1 (mass ratio) are coencapsulated in LNP preparations as described herein. LNP preparations are administrated into Balb/c mice through tail vein injections at concentrations ranging from 0.05 to 3.0 mg/kg total RNA. At 4 days after dosing, mice are euthanized and liver, spleen and bone barrow are harvested. Base editing is determined by performing targeted deep sequencing analysis at the ALAS1 target site using extracted genomic DNA.

[1] = Dynamic light scattering (DLS) of LNP preparations: size (diameter) and polydispersity; type: physicochemical; details: for AVG PDI / AVG Z Dia (nm): Table A, LNP 47.5% Ionizable Lipid:40% cholesterol:2.5% PEG-2000 DMG:10% DPSC, N/P 4.5-6
Description: A ratio of aqueous to organic solvent of approximately 2:1 or 3:1 was maintained during mixing using differential flow rates. After mixing, LNP preparations were collected, diluted in phosphate buffer saline (PBS) or Tris-buffered saline (TBS) (approximately 1:1 v/v). Further buffer exchange was conducted using dialysis in PBS or TBS at 4° C. for 4 to 24 hours against a 20 kDa filter. After this initial dialysis, each individual LNP preparation may be characterized via dynamic light scattering (DLS) to measure the size (e.g., diameter) and polydispersity. LNP preparations falling within specific diameter and polydispersity ranges were pooled, and further dialyzed against PBS or TBS at 4° C. for 1 to 4 hours against a 100 kDa dialysis cassette. After the second dialysis, LNP preparations were sterile filtered using 0.22 μm filter and stored at 4° C. for further use.
as §1
DLS-LNP preparation hydrodynamic diameter and polydispersity index (PDI) is measured using high throughput dynamic light scattering (DLS) (DynaPro plate reader II, Wyatt). LNP preparations are diluted 1×PBS to an appropriate concentration and analyzed.

[2] = Encapsulation efficiency of LNP preparations (unlysed and lysed LNPs); type: physicochemical; details: for AVG EE(%): Table A, LNP 47.5% Ionizable Lipid:40% cholesterol:2.5% PEG-2000 DMG:10% DPSC, N/P 4.5-6, NA cargo with barcode
Description: Concentration of NA is determined by Qubit microRNA kit (for siRNA) or HS RNA kit (for mRNA) per manufacturer's instructions. Encapsulation efficiency is determined by measuring unlysed and lysed LNPs.

[3] = pKa of LNP preparations via TNS assay; type: physicochemical; details: Table D; LNP formulation ratio 47.5:40:2.5:10
Description: as §1

[4] = Table C, LNP formulation ratio 47.5:40:2.5:10, ABE mRNA + ALAS1 sgRNA 1:1
[5] = Table D, LNP formulation ratio 47.5:40:2.5:10, ABE mRNA + PCSK9 sgRNA 1:1

Compound	Diameter (nm) [1, 4]	PDI (%) [1, 4]	EE (%) [2, 4]	pKa [3]	Diameter (nm) [1, 5]	EE (%) [2, 5]	also measured
C=CCCCCCC(CCCCCC=C)OC(=O)CCCCCC(=O)OCC(COC(=O)CCCCCC(=O)OC(CCCCCC=C)CCCCCC=C)COC(=O)CCC(CCCCC)OC(=O)NCCN1CCCC1 (stereo not shown) [Example 2, 7,7′-di(pentadeca-1,14-dien-8-yl) O′1,O1-(2-(((4-(((2-(pyrrolidin-1-yl)ethyl)carbamoyl)oxy)nonanoyl)oxy)methyl)propane-1,3-diyl) di(heptanedioate)]	64.4 nm	8.2%	95.75%	–	–	–	Quadracept Editing A->G (%) (ALAS1 target site; Dose 1.5 MPK total RNA): 1.7%; Liver Editing A->G (%) (ALAS1 target site; Dose 1.5 MPK total RNA): 86.3%; AVG PDI [1]: 0.09; AVG Z Dia (nm) [1]: 78.76 nm; AVG EE(%) [2]: 90.7%
C=CCCCCCC(CCCCCC=C)COC(=O)CCCCC(=O)OCC(COC(=O)CCCCC(=O)OCC(CCCCCC=C)CCCCCC=C)COC(=O)CCC(CCCCCC)OC(=O)NCCN1CCCC1 (stereo not shown) [Example 5, bis(2-(hept-6-en-1-yl)non-8-en-1-yl) O,O′-(2-(((4-(((2-(pyrrolidin-1-yl)ethyl)carbamoyl)oxy)decanoyl)oxy)methyl)propane-1,3-diyl) diadipate]	64.5 nm	8.2%	95.84%	–	–	–	Quadracept Editing A->G (%) (ALAS1 target site; Dose 1.5 MPK total RNA): 1.5%; Liver Editing A->G (%) (ALAS1 target site; Dose 1.5 MPK total RNA): 79.8%; AVG PDI [1]: 0.08; AVG Z Dia (nm) [1]: 79.74 nm; AVG EE(%) [2]: 93.9%
7,7′-bis(2-(pent-4-en-1-yl)hept-6-en-1-yl) O′1,O1-(2-(((4-(((2-(pyrrolidin-1-yl)ethyl)carbamoyl)oxy)decanoyl)oxy)methyl)propane-1,3-diyl) di(heptanedioate) [Example 4]	124.45 nm	10.6%	87.2%	–	–	–	Liver Editing A->G (%) (ALAS1 target site; Dose 0.05 MPK total RNA): 1.59%
Bis(2-(pent-4-en-1-yl)hept-6-en-1-yl) O,O′-(2-(((4-(((2-(118yrrolidine-1-yl)ethyl)carbamoyl)oxy)decanoyl)oxy)methyl)propane-1,3-diyl) diadipate [Example 3]	140.85 nm	5.5%	82.63%	–	–	–	–
CCCCCCC(CCC(=O)OCC(COC(=O)CCCCCC(=O)OCCC(C)CCCC(C)C)COC(=O)CCCCCC(=O)OCCC(C)CCCC(C)C)OC(=O)NCCN1CCCC1 (stereo not shown) [Example 8, 1-(3,7-Dimethyloctyl)-7-[3-({7-[(3,7-dimethyloctyl)oxy]-7-oxoheptanoyl}oxy)-2-({[4-({[2-(pyrrolidin-1-yl)ethyl]carbamoyl}oxy)decanoyl]oxy}methyl)propyl]heptanedioate]	–	–	–	6.74	110.35 nm	94.3%	–
CCCCCCC(CCC(=O)OCC(COC(=O)CCCCCC(=O)OC/C=C(\C)CCC=C(C)C)COC(=O)CCCCCC(=O)OC/C=C(\C)CCC=C(C)C)OC(=O)NCCN1CCCC1 (stereo not shown) [Example 7, 1-(2E)-3,7-dimethylocta-2,6-dien-1-yl 7-{3-[(7-{[(2E)-3,7-dimethylocta-2,6-dien-1-yl]oxy}-7-oxoheptanoyl)oxy]-2-({[4-({[2-(pyrrolidin-1-yl)ethyl]carbamoyl}oxy)decanoyl]oxy}methyl)propyl}heptanedioate]	–	–	–	7.17	134.3 nm	91.7%	–
C=C(C)C(CC=C(C)C)COC(=O)CCCCCC(=O)OCC(COC(=O)CCCCCC(=O)OCC(CC=C(C)C)C(=C)C)COC(=O)CCC(CCCCCC)OC(=O)NCCN1CCCC1 (stereo not shown) [Example 12, 1-[5-methyl-2-(prop-1-en-2-yl)hex-4-en-1-yl]-7-(2-{[(7-{[5-methyl-2-(prop-1-en-2-yl)hex-4-en-1-yl]oxy}-7-oxoheptanoyl)oxy]methyl}-3-{[4-({[2-(pyrrolidin-1-yl)ethyl]carbamoyl}oxy)decanoyl]oxy}propyl) heptanedioate]	–	–	–	6.68	163 nm	87.7%	–
CC/C=C\CCCC(CCC/C=C\CC)OC(=O)CCCCCC(=O)OCC(COC(=O)CCCCCC(=O)OC(CCC/C=C\CC)CCC/C=C\CC)COC(=O)CCC(CCCCCC)OC(=O)NCCN1CCCC1 (stereo not shown) [Example 6, 7,7′-di((3Z,12Z)-pentadeca-3,12-dien-8-yl) O′1,O1-(2-(((4-(((2-(pyrrolidin-1-yl)ethyl)carbamoyl)oxy)decanoyl)oxy)methyl)propane-1,3-diyl) di(heptanedioate)]	71 nm	10.8%	95.5%	–	–	–	Quadracept Editing A->G (%) (ALAS1 target site; Dose 1.5 MPK total RNA): 2.5%; Liver Editing A->G (%) (ALAS1 target site; Dose 1.5 MPK total RNA): 88.7%
C=CC(C)(CCC=C(C)C)OC(=O)CCCCCC(=O)OCC(COC(=O)CCCCCC(=O)OC(C)(C=C)CCC=C(C)C)COC(=O)CCC(CCCCCC)OC(=O)NCCN1CCCC1 (stereo not shown) [Example 10, 1-(3,7-dimethylocta-1,6-dien-3-yl)-7-[3-({7-[(3,7-dimethylocta-1,6-dien-3-yl)oxy]-7-oxoheptanoyl}oxy)-2-({[4-({[2-(pyrrolidin-1-yl)ethyl]carbamoyl}oxy)decanoyl]oxy}methyl)propyl]heptanedioate]	–	–	–	6.814	135.28 nm	99.1%	–
CCCCCCC(CCC(=O)OCC(COC(=O)CCCCCC(=O)OCCC(C)CCC=C(C)C)COC(=O)CCCCCC(=O)OCCC(C)CCC=C(C)C)OC(=O)NCCN1CCCC1 (stereo not shown) [Example 9, 1-(3,7-dimethyloct-6-en-1-yl) 7-[3-({7-[(3,7-dimethyloct-6-en-1-yl)oxy]-7-oxoheptanoyl}oxy)-2-({[4-({[2-(pyrrolidine-1-yl)ethyl]carbamoyl}oxy)decanoyl]oxy}methyl)propyl]heptanedioate]	–	–	–	6.85	148.65 nm	85.3%	–
CCCCCCC(CCC(=O)OCC(COC(=O)CCCCCC(=O)OC/C=C(/C)CCC=C(C)C)COC(=O)CCCCCC(=O)OC/C=C(/C)CCC=C(C)C)OC(=O)NCCN1CCCC1 (stereo not shown) [Example 11, 1-(2Z)-3,7-dimethylocta-2,6-dien-1-yl-7-{3-[(7-{[(2Z)-3,7-dimethylocta-2,6-dien-1-yl]oxy}-7-oxoheptanoyl)oxy]-2-({[4-({[2-(pyrrolidin-1-yl)ethyl]carbamoyl}oxy)decanoyl]oxy}methyl)propyl}heptanedioate]	–	–	–	6.85	152.05 nm	90.5%	–
